test system: PKMYT1 (CDK1 pThr14) in FUOV1 cells; experiment: PKMYT1 cell-based activity assay, CDK1 pThr14 AlphaLISA in FUOV1 cells; conditions: 2 h, 2 h compound incubation, read-out: FUOV-1 CDK1 pThr14 IC50
Method in brief: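 FUOV1 cells were treated with PKMYT1 inhibitor for 2 h at 37 °C, then lysed. CDK1 pThr14 was measured by AlphaLISA, pairing an anti-pThr14 antibody with an anti-total CDK1 antibody (5 nM each). Signal read at 680/615 nm and used to derive IC50.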

IC50 [nM]	SMILES
2	Cc1ccc2[nH]ncc2c1-c1nc(-c2ccc(F)cc2Nc2nccnc2C)nc(C(N)=O)c1N [Compound 640]
27	Cc1ccc2[nH]ncc2c1-c1nc(-c2ccc(F)cc2Nc2cccnc2C#N)nc(C(N)=O)c1N [Compound 674]
18	Cc1ccc2[nH]ncc2c1-c1nc(-c2ccc(F)cc2Nc2ccnc(C)c2C)nc(C(N)=O)c1N [Compound 584]
76	COc1cnnc(Nc2cc(F)ccc2-c2nc(C(N)=O)c(N)c(-c3c(C)ccc4[nH]ncc34)n2)c1 [Compound 566]
12	COc1ncc(F)c(Nc2cc(F)ccc2-c2nc(C(N)=O)c(N)c(-c3c(C)ccc4[nH]ncc34)n2)n1 [Compound 627]
4580	Cc1ccc2[nH]ncc2c1-c1nc(-c2ccc(F)cc2Nc2nccc(C(C)(C)C)n2)nc(C(N)=O)c1N [Compound 576]
1610	Cc1ccc2[nH]ncc2c1-c1nc(-c2ccc(F)cc2Nc2cc(C3(C#N)CC3)ccn2)nc(C(N)=O)c1N [Compound 698]
15	Cc1cc(Nc2cc(F)ccc2-c2nc(C(N)=O)c(N)c(-c3c(C)ccc4[nH]ncc34)n2)ccn1 [Compound 564]
163	Cc1ccc2[nH]ncc2c1-c1nc(-c2cc(F)ccc2Nc2ncc(F)cn2)nc(C(N)=O)c1N [Compound 492]
389	Cc1cc(C)nc(Nc2cc(F)ccc2-c2nc(C(N)=O)c(N)c(-c3c(C)ccc4[nH]ncc34)n2)n1 [Compound 567]
2	Cc1ccc(F)c(Nc2ncccc2-c2nc(C(N)=O)c(N)c(-c3c(C)ccc4[nH]ncc34)n2)n1 [Compound 697]
59	Cc1ccc2[nH]ncc2c1-c1nc(-c2cc(F)ccc2NS(=O)(=O)C(C)C)nc(C(N)=O)c1N [Compound 530]
11	Cc1ccc2[nH]ncc2c1-c1nc(-c2ccc(C#N)nc2Nc2ncccc2F)nc(C(N)=O)c1N [Compound 746]
998	Cc1ccc2[nH]ncc2c1-c1nc(-c2ccc(F)cc2Nc2cc(C(C)(C)O)ccn2)nc(C(N)=O)c1N [Compound 633]
392	Cc1ccc2[nH]ncc2c1-c1nc(-c2cccnc2Nc2ccc(F)nc2F)nc(C(N)=O)c1N [Compound 641]
1130	Cc1ccnc(Nc2c(F)cccc2-c2nc(C(N)=O)c(N)c(-c3c(C)ccc4[nH]ncc34)n2)n1 [Compound 776, 5-amino-2-(3-fluoro-2-((4-methylpyrimidin-2-yl)amino)phenyl)-6-(5-methyl-1H-indazol-4-yl)pyrimidine-4-carboxamide]
34	Cc1cccnc1Nc1nc(C#N)ccc1-c1nc(C(N)=O)c(N)c(-c2c(C)ccc3[nH]ncc23)n1 [Compound 737]
52	Cc1ccc2[nH]ncc2c1-c1nc(-c2ccc(F)cc2NS(C)(=O)=O)nc(C(N)=O)c1N [Compound 512]
25	Cc1ccc2[nH]ncc2c1-c1nc(-c2ccc(F)cc2Nc2nccnc2C#N)nc(C(N)=O)c1N [Compound 701]
383	Cc1ccnc(Nc2ncccc2-c2nc(C(N)=O)c(N)c(-c3c(C)ccc4[nH]ncc34)n2)c1C [Compound 738]

The remaining lines, values behind:

SMILES	IC50 [nM]
Cc1ccc2[nH]ncc2c1-c1nc(-c2cc(F)cnc2NC2CC(C)(C)C2)nc(C(N)=O)c1N [Compound 732]	534
Cc1ccc(F)c(Nc2ncc(F)cc2-c2nc(C(N)=O)c(N)c(-c3c(C)ccc(O)c3C)n2)n1 [Compound 715, 5-amino-2-[5-fluoro-2-[(3-fluoro-6-methyl-2-pyridyl)amino]-3-pyridyl]-6-(3-hydroxy-2,6-dimethyl-phenyl)pyrimidine-4-carboxamide]	9
CO[C@H]1C[C@@H](Nc2ncccc2-c2nc(C(N)=O)c(N)c(-c3c(C)ccc4[nH]ncc34)n2)C1 [Compound 548]	227
Cc1ccc2[nH]ncc2c1-c1nc(-c2cccnc2NCC2COC2)nc(C(N)=O)c1N [Compound 676]	> 10000
Cc1ccc2[nH]ncc2c1-c1nc(-c2cc(F)c(C#N)cc2NC(C)C(F)(F)F)nc(C(N)=O)c1N (stereo not drawn) [Compound 755]	103
Cc1ccc2[nH]ncc2c1-c1nc(-c2cccnc2NC2(C)CCOCC2)nc(C(N)=O)c1N [Compound 544]	6
Cc1c(F)cc2[nH]ncc2c1-c1nc(-c2cc(F)c(F)cc2NC(=O)C2(C(F)(F)F)CC2)nc(C(N)=O)c1N [Compound 509]	285
COCCNc1ccc2oc3c(C(N)=O)c(N)c(-c4c(C)ccc5[nH]ncc45)cc3c2n1 [Compound 558, 7-amino-2-((2-methoxyethyl)amino)-8-(5-methyl-1H-indazol-4-yl)benzofuro[3,2-b]pyridine-6-carboxamide]	95
Cc1ccc2[nH]ncc2c1-c1nc(-c2cccnc2NCCS(C)(=O)=O)nc(C(N)=O)c1N [Compound 543]	931
Cc1ccc2[nH]ncc2c1-c1nc(-c2cccnc2Nc2nc(C#N)ccc2Cl)nc(C(N)=O)c1N [Compound 743]	3
Cc1ccc2[nH]ncc2c1-c1nc(-c2ccc(Cl)nc2N[C@H]2C[C@@](C)(O)C2)nc(C(N)=O)c1N [Compound 772]	113
Cc1ccc2[nH]ncc2c1-c1nc(-c2cccnc2N[C@H]2[C@@H]3COC[C@@H]32)nc(C(N)=O)c1N [Compound 545]	43
Cc1ccc2[nH]ncc2c1-c1nc(-c2cccnc2Nc2ncccc2C(F)(F)F)nc(C(N)=O)c1N [Compound 767]	11
Cc1ccc2[nH]ncc2c1-c1nc(-c2cccnc2N[C@@H]2CCOC[C@@H]2F)nc(C(N)=O)c1N [Compound 643]	7
Cc1ccc2[nH]ncc2c1-c1nc(-c2cc(F)c(F)cc2NC2CCCC2(C)C)nc(C(N)=O)c1N (stereo not drawn) [Compound 488]	861
Cc1ccc2[nH]ncc2c1-c1nc(-c2cccnc2N[C@@H]2CC[C@H](O)C2)nc(C(N)=O)c1N [Compound 783]	35
Cc1ccc2[nH]ncc2c1-c1nc(-c2cccnc2Nc2ncccn2)nc(C(N)=O)c1N [Compound 726]	120
Cc1ccc2[nH]ncc2c1-c1nc(-c2cccnc2N[C@H]2CC[C@H](O)C2)nc(C(N)=O)c1N [Compound 785]	22
Cc1ccc2[nH]ncc2c1-c1nc(-c2cc(F)cnc2NCC(F)(F)F)nc(C(N)=O)c1N [Compound 747]	87
Cc1ccc2[nH]ncc2c1-c1cc2c(oc3ccc(OC4CCOCC4)nc32)c(C(N)=O)c1N [Compound 635]	402
CCc1ccccc1-c1nc(C(N)=O)c(N)c(-c2c(C)ccc3[nH]ncc23)n1 [Compound 778]	1260
Cc1ccc2[nH]ncc2c1-c1nc(-c2ccncc2NC(=O)C(C)(C)C)cc(C(N)=O)c1N [Compound 507, 5-amino-6-(5-methyl-1H-indazol-4-yl)-3′-pivalamido-[2,4′-bipyridine]-4-carboxamide]	166

same assay, conditions: 2 h, 2 h incubation, read-out: FUOV-1 CDK1 pThr14 IC50

IC50 [nM]	SMILES
399	CC(=O)N1CCN(c2nccc(-c3cc(-c4c(C)ccc5[nH]ncc45)c(N)c(C(N)=O)n3)n2)CC1 [Compound 215]

same assay, conditions: 2 h, 2 hours with compound, read-out: FUOV-1 CDK1 pThr14 IC50

IC50 [nM]	SMILES
9	Cc1ccc2[nH]ncc2c1-c1nc(-c2ccc(Cl)nc2Nc2nccnc2F)nc(C(N)=O)c1N [Compound 825]
9	Cc1ccc(-c2nc(C(N)=O)c(N)c(-c3c(C)ccc4[nH]ncc34)n2)c(Nc2nccc(Cl)n2)n1 [Compound 941]

Continued, compound first:

SMILES	IC50 [nM]
Cc1c(F)cc2[nH]ncc2c1-c1nc(-c2cc(F)cnc2NCC(C)(C)C#N)nc(C(N)=O)c1N [Compound 859]	41
COc1nccnc1Nc1nc(Cl)ccc1-c1nc(C(N)=O)c(N)c(-c2c(C)ccc3[nH]ncc23)n1 [Compound 826]	12
NC(=O)c1nc(-c2ccc(F)nc2Nc2ncccc2F)nc(-c2c(Cl)ccc3[nH]ncc23)c1N [Compound 913]	8
[2H]C([2H])([2H])c1ccc2[nH]ncc2c1-c1nc(-c2cc(F)cnc2N[C@H]2C[C@@](C)(O)C2)nc(C(N)=O)c1N [Compound 964]	68
Cc1ccc2[nH]ncc2c1-c1nc(-c2ccc(C#N)nc2NC2CCOCC2)nc(C(N)=O)c1N [Compound 810]	96
Cc1cc(F)c2[nH]ncc2c1-c1nc(-c2ccc(F)nc2Nc2ncccc2F)nc(C(N)=O)c1N [Compound 864]	9
NC(=O)c1nc(-c2cccnc2NC2CC2)nc(-c2c(F)ccc3[nH]ncc23)c1N [Compound 933]	65
Cc1ccc2[nH]ncc2c1-c1nc(-c2ccc(C#N)nc2NC2CC(F)(F)C2)nc(C(N)=O)c1N [Compound 809]	272
Cc1ccc(-c2nc(C(N)=O)c(N)c(-c3c(C)ccc4[nH]ncc34)n2)c(N[C@H]2C[C@@](C)(O)C2)n1 [Compound 956]	92
Cc1ccc2[nH]ncc2c1-c1nc(-c2cccnc2NC(C)C)cc(C(N)=O)c1N [Compound 866, 5-amino-2′-(isopropylamino)-6-(5-methyl-1H-indazol-4-yl)-[2,3′-bipyridine]-4-carboxamide]	62
Cc1c(F)cc2[nH]ncc2c1-c1nc(-c2ccc(F)nc2Nc2nccnc2C(F)F)nc(C(N)=O)c1N [Compound 854]	88
Cc1cc(F)c2[nH]ncc2c1-c1nc(-c2cc(F)cnc2N[C@H]2CC[C@@](C)(O)CC2)nc(C(N)=O)c1N [Compound 875]	170
Cc1ccc2n[nH]cc2c1-c1nc(-c2cc(F)cnc2N[C@H]2C[C@](O)(C(F)F)C2)nc(C(N)=O)c1N [Compound 897]	122
Cc1cc(F)c2[nH]ncc2c1-c1nc(-c2cc(F)cnc2N[C@H]2CCOC[C@H]2F)nc(C(N)=O)c1N [Compound 887]	104
Cc1ccc2[nH]ncc2c1-c1nc(-c2cn(C)nc2Nc2ncccc2F)nc(C(N)=O)c1N [Compound 925]	129
NC(=O)c1nc(-c2ccccc2Nc2ncccn2)nc(-c2c(Cl)ccc3[nH]ncc23)c1N [Compound 948]	44
Cc1ccc2[nH]ncc2c1-c1nc(-c2cc(F)cnc2OC2CC(C)(O)C2)nc(C(N)=O)c1N (stereo not drawn) [Compound 841]	1120

same assay, conditions: 2 hours with compound, read-out: FUOV-1 CDK1 pThr14 IC50

IC50 [nM]	SMILES
15	Cc1ccc2[nH]ncc2c1-c1nc(-c2cc(F)cnc2N[C@@H]2C[C@H]3CC[C@@H]2O3)nc(C(N)=O)c1N [Compound 836]

Reference: patent US20250304537A1 (Repare Therapeutics Inc., priority 2022, published 2025)
